Laboratory results taken from patent publication US20260144890A1, “ANTIBODY DRUG CONJUGATE COMPRISING NMT INHIBITOR CONJUGATED TO AN ANTIBODY” (MyricX Pharma Limited, priority 2024, published 2026).

What was measured:
[1] = tested on: gastric cancer organoid GA2434B; assay: Gastric cancer organoid viability (CTG 3D), GA2434B; type: cell-based; design: unit not given beside the values
Experimental: (§1) Day −1: Patient derived gastric cancer organoids (PDXOs) are sheared to uniform sizes and the required number of organoids are combined 1:1 with 50% Matrigel to produce the right size of the organoids to perform the screen.
(§2) Day 0: Organoid seeding • 1. Collect organoids from each well by adding 20 μl 100× Dispase solution to each well from a 6-well plate, which contains 2 ml of organoid medium. • 2. Put the plates back in the incubator, 37° C. for 30 min. • 3. Collect organoids from all wells and pipet through a pre-wet 100 μm filter into a 50 ml plastic tube. • 4. Once all wells have been filtered over 100 μm filters, filter the flow though over a pre-wet 20 μm filter. • 5. […]
(§3) • 10. Place screening plates back into the incubator before adding compounds and day 0 reading. […] One is for day 0 reading (TO) and the other for reading at the end point.
(§4) Day 0: Compounds treatment and Day 0 baseline CTG (cell titre glo) reading • 11. […] For day 0 reading plate, add 40 μL of CTG 3D per well and read luminescent signal on Envision plate reader.
(§5) Day 6: Endpoint CTG reading. • 1. Read assay plates for luminescent CTG signal at the end of the assays: add 40 μL of CTG 3D per well by Multidrop dispenser, mix the contents for 5 min on the plate shaker, and incubate the plates for 30 min at room temperature in dark. Read luminescent signal on Envision plate reader. […]

[2] = tested on: gastric cancer organoid GA0060B; assay: Gastric cancer organoid viability (CTG 3D), GA0060B; type: cell-based; design: unit not given beside the values
Experimental: as §1, §2, §3, §4, §5

[3] = tested on: gastric cancer organoid GA0087B; assay: Gastric cancer organoid viability (CTG 3D), GA0087B; type: cell-based; design: AUC (area under curve): unit not given beside the values
Experimental: as §1, §2, §3, §4, §5

[4] = tested on: gastric cancer organoid GA0429B; assay: Gastric cancer organoid viability (CTG 3D), GA0429B; type: cell-based; design: unit not given beside the values
Experimental: as §1, §2, §3, §4, §5

[5] = tested on: gastric cancer organoid GA0091B; assay: Gastric cancer organoid viability (CTG 3D), GA0091B; type: cell-based; design: AUC (area under curve): unit not given beside the values
Experimental: as §1, §2, §3, §4, §5

[6] = tested on: gastric cancer organoid GA6833B; assay: Gastric cancer organoid viability (CTG 3D), GA6833B; type: cell-based; design: unit not given beside the values
Experimental: as §1, §2, §3, §4, §5

[7] = tested on: gastric cancer organoid GA6877B; assay: Gastric cancer organoid viability (CTG 3D), GA6877B; type: cell-based; design: unit not given beside the values
Experimental: as §1, §2, §3, §4, §5

[8] = tested on: gastric cancer organoid GA0098B; assay: Gastric cancer organoid viability (CTG 3D), GA0098B; type: cell-based; design: AUC (area under curve): unit not given beside the values
Experimental: as §1, §2, §3, §4, §5

[9] = tested on: gastric cancer organoid GA0119B; assay: Gastric cancer organoid viability (CTG 3D), GA0119B; type: cell-based; design: AUC (area under curve): unit not given beside the values
Experimental: as §1, §2, §3, §4, §5

[10] = tested on: gastric cancer organoid GA2109B; assay: Gastric cancer organoid viability (CTG 3D), GA2109B; type: cell-based; design: unit not given beside the values
Experimental: as §1, §2, §3, §4, §5

[11] = tested on: gastric cancer organoid GA3102B; assay: Gastric cancer organoid viability (CTG 3D), GA3102B; type: cell-based; design: unit not given beside the values
Experimental: as §1, §2, §3, §4, §5

[12] = tested on: gastric cancer organoid GA3055B; assay: Gastric cancer organoid viability (CTG 3D), GA3055B; type: cell-based; design: unit not given beside the values
Experimental: as §1, §2, §3, §4, §5

[13] = tested on: gastric cancer organoid GA6866B; assay: Gastric cancer organoid viability (CTG 3D), GA6866B; type: cell-based; design: unit not given beside the values
Experimental: as §1, §2, §3, §4, §5

[14] = tested on: gastric cancer organoid GA6894B; assay: Gastric cancer organoid viability (CTG 3D), GA6894B; type: cell-based; design: AUC (area under curve): unit not given beside the values
Experimental: as §1, §2, §3, §4, §5

[15] = tested on: gastric cancer organoid GA6891B; assay: Gastric cancer organoid viability (CTG 3D), GA6891B; type: cell-based; design: AUC (area under curve): unit not given beside the values
Experimental: as §1, §2, §3, §4, §5

[16] = tested on: gastric cancer organoid GA6815B; assay: Gastric cancer organoid viability (CTG 3D), GA6815B; type: cell-based; design: AUC (area under curve): unit not given beside the values
Experimental: as §1, §2, §3, §4, §5

[17] = tested on: JIMT-1 human breast xenograft; assay: JIMT1 breast cancer xenograft model (Balb/c nude mice, ADC Example 1); type: in vivo, mouse
Experimental: In this study, 72 mice were inoculated subcutaneously in the right front flank region with 1×10^7 viable JIMT-1 tumour cells resuspended in Matrigel (1:1) on Study Day −15. When tumours reached a tumour volume of approximately 120-150 mm^3, 60 mice with the most similarly sized tumours were randomly assigned to 6 treatment groups on Study Day 0. […] The study was terminated on Study Day 58. The dosing regimen was as follows:
The body weight of all mice in each group was measured and recorded three times weekly throughout the duration of the study. Moreover, the tumour volume was measured (mm^3) and recorded using digital calipers three times weekly throughout the duration of the study. In particular, the length, width, and depth of the tumour were each measured and used to calculate tumour volume (mm^3). The results are shown in FIG. 58, FIG. 59, and FIG. 60.

[18] = tested on: VCaP human prostate cancer xenograft; assay: VCaP prostate cancer xenograft model; type: in vivo, mouse
Experimental: In this study, 144 mice were inoculated subcutaneously in the right front flank region with 1×10^7 viable VCaP tumour cells resuspended in 0.1 mL of PBS mixed with Matrigel (1:1) for tumour development on Study Day −20. 80 mice were assigned to 8 treatment groups when tumour volumes averaged ˜162.16 mm^3 on Study Day 0. Dosing commenced the following day and all animals were dosed intravenously with ADC Example 4, ifinatamab-deruxtecan (ifinatamab-Dxd) or unconjugated ifinatamab. All mice received two doses of test agent, on Study Day 1 and Study Day 8. The study was terminated on Study Day 30. • The 8 groups were assigned as follows: […]

[19] = tested on: LNCaP tumours; assay: LNCaP prostate cancer xenograft model; conditions: for Day 28 tumour volume (mean ± SEM) / Tumour growth inhibition (TGI, %): IV, Q7D (x3); for Tumour growth inhibition (TGI, %): day 28
Experimental: A total of 84 male NOD SCID mice aged 5-8 weeks and weighing 25-30 g were used for the study.
• Duration of observation: 35 days. • Dosing volume: 5 mL/kg for all IV doses

CN[C@@H]1C[C@H]2O[C@@](C)([C@@H]1OC)n1c3ccccc3c3c4c(c5c6ccccc6n2c5c31)C(=O)NC4 [Staurosporine]
AUC (area under curve) [1]: 226.6809 | AUC (area under curve) [2]: 85.1 | AUC (area under curve) [3]: 113.2 | IC50 [3]: 2.9 nM | AUC (area under curve) [4]: 170.8729 | AUC (area under curve) [5]: 199.9 | IC50 [5]: 22.2 nM | AUC (area under curve) [6]: 158.1701 | AUC (area under curve) [7]: 175.472 | AUC (area under curve) [8]: 239.6 | IC50 [8]: 22.1 nM | AUC (area under curve) [9]: 212.2837 | IC50 [9]: 8.9 nM | AUC (area under curve) [10]: 233.3136 | AUC (area under curve) [11]: 200.7667 | AUC (area under curve) [12]: 144.7132 | AUC (area under curve) [13]: 201.1356 | AUC (area under curve) [14]: 230.6577 | IC50 [14]: 8.5 nM | AUC (area under curve) [15]: 174.0868 | IC50 [15]: 9 nM | AUC (area under curve) [16]: 194.3428 | IC50 [16]: 15.8 nM

trastuzumab emtansine
tumour volume compared to vehicle alone ([17]; 5 mg/kg IV on Study Days 0, 7, 28 and 35, agent alone): no decrease in tumour volume | mice that completely responded (of 10) ([17]; 5 mg/kg IV, agent alone): no mice | mice that partially responded (of 10) ([17]; 5 mg/kg IV, agent alone): no mice

ifinatamab
tumour volume compared to vehicle alone ([18]; 2.5 mg/kg): no significant difference | ΔTGI (Study Day 17) ([18]; 2.5 mg/kg QW x 2 weeks IV): 8.47% | tumour volume compared to vehicle alone ([18]; 5 mg/kg): no significant difference | ΔTGI (Study Day 17) ([18]; 5 mg/kg QW x 2 weeks IV): 12.44% | LNCaP tumour volume compared to vehicle ([19]; 5 mg/kg): no significant effect | Day 28 tumour volume (mean ± SEM) ([19]; 5 mg/kg): 551.4 ± 73.1 mm^3 | Tumour growth inhibition (TGI, %) ([19]; 5 mg/kg): 30.6% | LNCaP tumour volume compared to vehicle ([19]; 10 mg/kg): no significant effect | Day 28 tumour volume (mean ± SEM) ([19]; 10 mg/kg): 666.56 ± 103.2 mm^3 | Tumour growth inhibition (TGI, %) ([19]; 10 mg/kg): 13.0%

B1: ifinatamab-DXd (conjugate, chains of the INN, looked up)
VH: QVQLVQSGAEVKKPGSSVKVSCKASGYTFTNYVMHWVRQAPGQGLEWMGYINPYNDDVKYNEKFKGRVTITADESTSTAYMELSSLRSEDTAVYYCARWGYYGSPLYYFDYWGQGTLVTVSS
VL: EIVLTQSPATLSLSPGERATLSCRASSRLIYMHWYQQKPGQAPRPLIYATSNLASGIPARFSGSGSGTDFTLTISSLEPEDFAVYYCQQWNSNPPTFGQGTKVEIK
modifications: deruxtecan (DXd) payload
tumour volume compared to vehicle alone ([18]; 2.5 mg/kg): no significant difference | ΔTGI (Study Day 17) ([18]; 2.5 mg/kg QW x 2 weeks IV): 5.24% | tumour volume compared to vehicle alone ([18]; 5 mg/kg): significantly higher tumour volume | ΔTGI (Study Day 17) ([18]; 5 mg/kg QW x 2 weeks IV): 2.86% | LNCaP tumour volume compared to vehicle ([19]; 5 mg/kg): slowed the growth of LNCaP tumours to a lesser extent | Day 28 tumour volume (mean ± SEM) ([19]; 5 mg/kg): 364.6 ± 51.7 mm^3 | Tumour growth inhibition (TGI, %) ([19]; 5 mg/kg): 58.8% | LNCaP tumour volume compared to vehicle ([19]; 10 mg/kg): significantly reduced the mean volume of LNCaP tumours | Day 28 tumour volume (mean ± SEM) ([19]; 10 mg/kg): 259.5 ± 50.3 mm^3 | Tumour growth inhibition (TGI, %) ([19]; 10 mg/kg): 75.0%
